ChEMBL document CHEMBL5050859, “Gpx4 inhibitors, pharmaceutical compositions thereof, and their use for treating gpx4-mediated diseases” (2021)

tested on: Huh-7; experiment: Antiproliferative activity against human Huh-7 cells after 24 hrs by Cell Titer Glo assay; assay type: functional, cell-based; settings: Huh-7, 24 h

EC50 [nM] | Compound
100 | C#CC(=O)N(c1cccc(F)c1)C(C(=O)NCc1ccccc1)c1cccc(N)c1 (centres undefined)
≤ 100 | C#CC(=O)N(c1ccc(OC)c(Cl)c1)C(C(=O)NCc1ccccc1)c1ccc(N)cc1 (centres undefined)
2000 | C#CC(=O)N(c1ccc(O)cc1)C(C(=O)NCc1ccccc1)c1cccc(N)c1 (centres undefined)
2000 | C#CC(=O)N(c1ccc(CO)cc1)C(C(=O)NC(C)(C)C)c1ccc(N)cc1 (centres undefined)
2000 | C#CC(=O)N(c1cccc(S(C)(=O)=O)c1)C(C(=O)NC(C)(C)C)c1ccc(N)cc1 (centres undefined)
100 | C#CC(=O)N(c1cccc(Cl)c1)[C@]1(C(=O)NCc2ccccc2)CC[C@H](O)CC1
100 | C#CC(=O)N(c1cccc(OC)c1)C(C(=O)NCc1ccccc1)c1cccc(N)c1 (centres undefined)
≤ 100 | C#CC(=O)N(c1ccc(OC)c(Cl)c1)C(C(=O)NC(C)(C)C)c1ccc(N)cc1 (centres undefined)
500 | C#CC(=O)N(Cc1ccccc1)C(C(=O)NCc1ccccc1)c1cccc(N)c1 (centres undefined)
≤ 100 | C#CC(=O)N(c1ccc(Cl)cc1)C(C(=O)NCc1ccccc1)c1ccc(N)cc1 (centres undefined)
> 10000 | C#CC(=O)N(c1ccc(NS(C)(=O)=O)cc1)C(C(=O)NC(C)(C)C)c1ccc(N)cc1 (centres undefined)
> 10000 | C#CC(=O)N(c1ccc(NS(C)(=O)=O)cc1)C(C(=O)NC(C)(C)C)c1cccc(N)c1 (centres undefined)
2000 | C#CC(=O)N(c1cccc(NS(C)(=O)=O)c1)C(C(=O)NCc1ccccc1)c1cccc(N)c1 (centres undefined)
> 10000 | Cn1ncc2cc(N(C(=O)CCBr)C3(C(=O)NCc4ccccc4)CCOCC3)ccc21
≤ 100 | C#CC(=O)N(c1ccc(C(=O)OC)cc1)C(C(=O)NC(C)(C)C)c1ccc(N)cc1 (centres undefined)
> 10000 | C#CC(=O)N(c1ccc(O)cc1)C(C(=O)NC(C)(C)C)c1ccc(N)cc1 (centres undefined)
100 | C#CC(=O)N(c1cccc(Cl)c1)C(C(=O)NC(C)(C)C)c1cccc(N)c1 (centres undefined)
100 | C#CC(=O)N(c1cccc(Cl)c1)C(C(=O)NC(C)(C)C)c1ccc(N)cc1 (centres undefined)
≤ 100 | C#CC(=O)N(c1cc(Cl)ccc1F)C(C(=O)NCc1ccccc1)c1cccc(N)c1 (centres undefined)
100 | C#CC(=O)N(c1cccc(C#N)c1)C(C(=O)NCc1ccccc1)c1cccc(N)c1 (centres undefined)
≤ 100 | C#CC(=O)N(c1ccc(C#N)cc1)C(C(=O)NCc1ccccc1)c1cccc(N)c1 (centres undefined)
≤ 100 | C#CC(=O)N(c1cccc(Cl)c1F)C(C(=O)NCc1ccccc1)c1cccc(N)c1 (centres undefined)
2000 | C#CC(=O)N(c1cccc(CO)c1)C(C(=O)NCc1ccccc1)c1cccc(N)c1 (centres undefined)
> 10000 | C#CC(=O)N(c1ccc(S(N)(=O)=O)cc1)C(C(=O)NC(C)(C)C)c1ccc(N)cc1 (centres undefined)
2000 | C#CC(=O)N(c1ccc(O)cc1)C(C(=O)NC(C)(C)C)c1cccc(N)c1 (centres undefined)
2000 | C#CC(=O)N(c1ccc(CO)cc1)C(C(=O)NC(C)(C)C)c1cccc(N)c1 (centres undefined)

EC50 [nM] | Compound
≤ 100 | C#CC(=O)N(c1cccc(Cl)c1)C1(C(=O)NCc2ccccc2)CCOCC1
500 | C#CC(=O)N(c1ccc(OC)cc1)C(C(=O)NC(C)(C)C)c1ccc(N)cc1 (centres undefined)
100 | C#CC(=O)N(c1ccc(Cl)cc1)C(C(=O)NC(C)(C)C)c1ccc(N)cc1 (centres undefined)
2000 | C#CC(=O)N(c1ccc(N)cc1)C(C(=O)NC(C)(C)C)c1ccc(N)cc1 (centres undefined)
2000 | C#CC(=O)N(c1ccc(NC(C)=O)cc1)C(C(=O)NC(C)(C)C)c1cccc(N)c1 (centres undefined)
> 10000 | N#CCC(=O)N(c1cccc(Cl)c1)C1(C(=O)NCc2ccccc2)CCOCC1
≤ 100 | C#CC(=O)N(c1cccc(C(=O)OC)c1)C(C(=O)NCc1ccccc1)c1ccc(N)cc1 (centres undefined)
500 | C#CC(=O)N(c1ccc(OC)cc1)C(C(=O)NC(C)(C)C)c1cccc(N)c1 (centres undefined)
> 10000 | C#CC(=O)N(c1ccc(S(N)(=O)=O)cc1)C(C(=O)NCc1ccccc1)c1cccc(N)c1 (centres undefined)
2000 | C#CC(=O)N(c1cccc(CO)c1)C(C(=O)NCc1ccccc1)c1ccc(N)cc1 (centres undefined)
≤ 100 | C#CC(=O)N(c1ccc(OC)cc1)C(C(=O)NCc1ccccc1)c1cccc(N)c1 (centres undefined)
2000 | C#CC(=O)N(c1cccc(NC(C)=O)c1)C(C(=O)NCc1ccccc1)c1cccc(N)c1 (centres undefined)
100 | C#CC(=O)N(c1ccc(OC)c(Cl)c1)C(C(=O)NC(C)(C)C)c1cccc(N)c1 (centres undefined)
≤ 100 | C#CC(=O)N(c1cccc(Cl)c1)C(C(=O)NCc1ccccc1)c1cccc(N)c1 (centres undefined)
≤ 100 | C#CC(=O)N(c1ccc(OC)c(Cl)c1)C(C(=O)NCc1ccccc1)c1cccc(N)c1 (centres undefined)
> 10000 | C#CC(=O)N(c1cccc(S(N)(=O)=O)c1)C(C(=O)NC(C)(C)C)c1ccc(N)cc1 (centres undefined)
2000 | C#CC(=O)N(c1ccc(N)cc1)C(C(=O)NC(C)(C)C)c1cccc(N)c1 (centres undefined)
100 | C#CC(=O)N(c1cccc(OC)c1)C(C(=O)NC(C)(C)C)c1ccc(N)cc1 (centres undefined)
2000 | C#CC(=O)N(c1ccc(NC(C)=O)cc1)C(C(=O)NC(C)(C)C)c1ccc(N)cc1 (centres undefined)
≤ 100 | C#CC(=O)N(c1ccc(C(=O)OC)cc1)C(C(=O)NCc1ccccc1)c1cccc(N)c1 (centres undefined)
> 10000 | Cn1ncc2cc(N(C(=O)CCCl)C3(C(=O)NCc4ccccc4)CCOCC3)ccc21
2000 | C#CC(=O)N(c1ccc(S(C)(=O)=O)cc1)C(C(=O)NC(C)(C)C)c1ccc(N)cc1 (centres undefined)
100 | C#CC(=O)N(c1cccc(C#N)c1)C(C(=O)NCc1ccccc1)c1ccc(N)cc1 (centres undefined)
> 10000 | C#CC(=O)N(c1cccc(C(N)=O)c1)C(C(=O)NCc1ccccc1)c1cccc(N)c1 (centres undefined)
≤ 100 | C#CC(=O)N(c1cccc(Cl)c1)C(C(=O)NCc1ccccc1)c1ccc(N)cc1 (centres undefined)
≤ 100 | C#CC(=O)N(c1cccc(O)c1)C(C(=O)NCc1ccccc1)c1cccc(N)c1 (centres undefined)

tested on: Huh-7; experiment: Antiproliferative activity against human Huh-7 cells in presence of 1 uM liproxstatin-1 measured after 24 hrs by Cell Titer Glo assay; assay type: functional, cell-based; settings: Huh-7, 24 h

EC50 [nM] | Compound
> 10000 | C#CC(=O)N(c1cccc(Cl)c1)C1(C(=O)NCc2ccccc2)CCOCC1

tested on: Huh-7; experiment: Antiproliferative activity against human Huh-7 cells in presence of 1 uM ferrostatin-1 measured after 24 hrs by Cell Titer Glo assay; assay type: functional, cell-based; settings: Huh-7, 24 h

EC50 [nM] | Compound
> 10000 | C#CC(=O)N(c1cccc(Cl)c1)C1(C(=O)NCc2ccccc2)CCOCC1
